How the values were obtained:
Cynomolgus monkey = settings: in vivo, po, 10 mg/kg
[1] = Dissociation constant, pKa of the compound; type: physicochemical
in vivo = settings: rat, iv
[2] = AUC in male rat at 2000 mg/kg/day, iv; type: ADME, organism-based; parameters: route intravenous; settings: plasma
[3] = AUC in female rat at 2000 mg/kg/day, iv; type: ADME, organism-based; parameters: route intravenous; settings: plasma
[4] = AUC in male dog at 250 mg/kg/day, iv; type: ADME, organism-based, Canis lupus familiaris; parameters: route intravenous; settings: plasma
[5] = AUC in female dog at 250 mg/kg/day, iv; type: ADME, organism-based, Canis lupus familiaris; parameters: route intravenous; settings: plasma

SMILES | clearance (in vivo) | also measured
Cc1nc2ccccc2n1C1CC2CCC(C1)N2CCC1(c2cccc(F)c2)CCN(C(=O)c2cc(NS(C)(=O)=O)c(F)cc2Cl)CC1 (centres undefined) |  | AUC/dose (Cynomolgus monkey): 59 ng·h/mL
Cc1nc2ccccc2n1[C@H]1C[C@H]2CC[C@@H](C1)N2CCC1(c2ccccc2)CCN(C(=O)C(C)(C)C)CC1 |  | pKa [1]: 10.7
Cc1nc2ccccc2n1C1CC2CCC(C1)N2CC(=O)C1(c2ccccc2)CCN(C(=O)C(C)(C)C)CC1 (centres undefined) |  | pKa [1]: 6.37
Cc1nc2ccccc2n1C1CC2CCC(C1)N2CCC1(c2cccc(F)c2)CCN(C(=O)C(C)(C)C)CC1 (centres undefined) | 24 mL/min/kg | 
Cc1nc2ccccc2n1C1CC2CCC(C1)N2CCC1(c2cccc(F)c2)CCN(C(=O)C2(C(=O)O)CCC2)CC1 (centres undefined) | 136 mL/min/kg | 
Cc1nc2ccccc2n1C1CC2CCC(C1)N2CCC1(c2ccccc2)CCN(C(=O)c2ccccc2C(=O)O)CC1 (centres undefined) | 114 mL/min/kg | 
Cc1nc2ccccc2n1C1CC2CCC(C1)N2CCC1(c2ccccc2)CCN(C(=O)c2cccc(C(=O)O)c2)CC1 (centres undefined) | 62 mL/min/kg | 
Cc1nc2ccccc2n1C1CC2CCC(C1)N2CCC1(c2ccccc2)CCN(C(=O)C(C)(C)c2nnn[nH]2)CC1 (centres undefined) | 156 mL/min/kg | 
Cc1nc2ccccc2n1C1CC2CCC(C1)N2CCC1(c2ccccc2)CCN(C(=O)C(C)(C)C(=O)NS(C)(=O)=O)CC1 (centres undefined) | 53 mL/min/kg | 
Cc1nc2ccccc2n1C1CC2CCC(C1)N2CCC1(c2ccccc2)CCN(C(=O)c2ccc3c(c2)CC(=O)NS3(=O)=O)CC1 (centres undefined) | 26 mL/min/kg | 
Cc1nc2ccccc2n1C1CC2CCC(C1)N2CCC1(c2ccccc2)CCN(C(=O)c2ccc(Cl)c(S(N)(=O)=O)c2)CC1 (centres undefined) | 31 mL/min/kg | 
Cc1nc2ccccc2n1C1CC2CCC(C1)N2CCC1(c2cccc(F)c2)CCN(C(=O)c2ccc(Cl)c(S(N)(=O)=O)c2)CC1 (centres undefined) | 26.8 mL/min/kg | 
Cc1cccc(C2(CCN3C4CCC3CC(n3c(C)nc5ccccc53)C4)CCN(C(=O)c3ccc(Cl)c(S(N)(=O)=O)c3)CC2)c1 (centres undefined) | 28.3 mL/min/kg | 
CNS(=O)(=O)c1cc(C(=O)N2CCC(CCN3C4CCC3CC(n3c(C)nc5ccccc53)C4)(c3cccc(F)c3)CC2)c(Cl)cc1F (centres undefined) |  | AUC [2]: 77000 ng·h/mL; AUC [3]: 160000 ng·h/mL; AUC [4]: 17200 ng·h/mL; AUC [5]: 34900 ng·h/mL; AUC/dose (Cynomolgus monkey): 38 ng·h/mL
Cc1nc2ccccc2n1C1CC2CCC(C1)N2CCC1(c2cccc(F)c2)CCN(C(=O)c2c(F)ccc(NS(C)(=O)=O)c2F)CC1 (centres undefined) |  | AUC/dose (Cynomolgus monkey): 19.9 ng·h/mL

Source: ChEMBL document CHEMBL1781974, “Novel 4,4-disubstituted piperidine-based C-C chemokine receptor-5 inhibitors with high potency against human immunodeficiency virus-1 and an improved human ether-a-go-go related gene (hERG) profile” (J Med Chem, 2011)
